Test results reported in patent US8088799B2, “Pharmaceutical composition comprising a sodium hydrogen exchange inhibitor and an angiotensin converting enzyme inhibitor” (Sanofi-Aventis Deutschland GmbH, priority 2002, dated 2012).
Entries after “also recorded” stand apart in the source; their conditions may differ.

Tests used:
[1] = tested on: spontaneously hypertensive rats (SHR); assay: Survival rate of old spontaneously hypertensive rats under late-onset treatment; assay type: in vivo, rat; set-up: key to Holm-adjusted log rank test of survival vs. Cariporide / Holm-adjusted log rank test of survival vs. Placebo: * indicates significant difference; n.s. = not significant; conditions: for Median survival time: time from start of treatment (18th month of life) at which survival rate reaches 50%, Kaplan-Meier estimate
Method: (§1) The pharmacological model of spontaneously hypertensive rat is generally accepted to be representative of human essential hypertony. In each experimental group initially 27 18-months old rats were employed. 3 months after the start of treatment, when the number of surviving animals in the placebo control group was only 7, an interim analysis was carried out on 7 animals from each group.
The effect of a ramipril and cariporide combination product on the survival rate of rats with genetically related hypertension was investigated.
(§2) In the experiment old hypertensive rats (age: 18 months) were treated with the NHE inhibitor cariporide or with a subthreshold dose of ramipril with no lowering effect on the blood pressure or with a combination of both substances. For each of the four treatments 27 18-month old rats were employed. A daily dose of 400 mg of cariporide per kg body weight (0.6% cariporide in standard rat feed) and 10 μg ramipril per kg body weight (in the drinking water) were given. 3 months after the start of treatment, when the number of surviving animals in the placebo control group was only 7, an interim analysis was carried out on 7 animals from each group. The remaining, still living rats per group were continuously treated as mentioned above since they were 18 months old.
Thus, in the determination of the survival time […] 18-month old rats were employed in each experimental group (table 1).
There are evidently distinct differences between placebo and product groups on the one hand and between the individual products and the combination after the experiment had lasted only 3-4 months.
The statistical analysis was carried out essentially using the SAS/STAT procedure LIFETEST [SAS Institute Inc. (1989): SAS/STAT User's Guide, Version 6, 4th Edition, Volume 2, Cary, N.C.; SAS Institute Inc.]. The log rank tests were carried out pairwise on the experimental groups and adjusted to obtain a multiple significance level of 5% according to Holm [S. Holm (1979): A Simple Sequentally Rejective Multiple Test Procedure; Scand. J. Statist.; 6, pp 65-70].

[2] = tested on: hearts of old spontaneously hypertensive rats; assay: Interim analysis 3 months after start of treatment: heart function, myocardial fibrosis (Hyp/Arg), heart weight; assay type: in vivo, rat; conditions: 7 animals per group; for Force of myocardial contraction / function of the heart: compared with placebo control hearts, 3 months after start of treatment
Method: as §1, §2
As mentioned above, 3 months after the start of treatment, when the number of surviving animals in the placebo control group was only 7, an interim analysis was carried out on 7 animals from each group. The weight of the complete heart and the weight of the left and right ventricle were measured. Just so, the molar ratio of hydroxyproline and ariginine in the heart tissues was measured (measured via HPLC), which is a marker for the myocardial fibrosis. […] Hyp/Arg is the ratio of hydroxyproline to arginine and is regarded as a fibrosis marker.
These effects are also reflected in the weights of the hearts (FIG. 3).

old normotensive rats = conditions: from WO 00/38661; cited from earlier work
[3] = tested on: spontaneously hypertensive rats; conditions: known for some time; cited from earlier work
[4] = age 18 months (start of treatment), 20 rats per group, cariporide 400 mg/kg/day in feed, ramipril 10 μg/kg/day in drinking water
[5] = age 19 months, of 20 rats per group
[6] = age 20 months, of 20 rats per group
[7] = age 21 months, of 20 rats per group
[8] = age 22 months, of 20 rats per group
[9] = age 23 months, of 20 rats per group
[10] = age 24 months, of 20 rats per group
[11] = age 25 months, of 20 rats per group
[12] = age 26 months, of 20 rats per group
[13] = age 27 months, of 20 rats per group
[14] = age 28 months, of 20 rats per group
[15] = age 29 months, of 20 rats per group
[16] = pairwise comparison, multiple significance level of 5%

CCOC(=O)[C@H](CCc1ccccc1)N[C@@H](C)C(=O)N1[C@H](C(=O)O)C[C@@H]2CCC[C@@H]21 [Ramipril, ramipril]
Number of surviving rats [1, 4]: 20 | Number of surviving rats [1, 5]: 18 | Number of surviving rats [1, 6]: 15 | Number of surviving rats [1, 7]: 11 | Number of surviving rats [1, 8]: 9 | Number of surviving rats [1, 9]: 4 | Number of surviving rats [1, 10]: 0 | Number of surviving rats [1, 11]: 0 | Number of surviving rats [1, 12]: 0 | Number of surviving rats [1, 13]: 0 | Number of surviving rats [1, 14]: 0 | Number of surviving rats [1, 15]: 0 | Holm-adjusted log rank test of survival vs. Cariporide [1, 16]: n.s. | Holm-adjusted log rank test of survival vs. Placebo [1, 16]: * | Survival rate compared with the placebo treatment ([1]; result in words): statistically significant improvement in the survival rate | Median survival time [1]: 4.0 months | Force of myocardial contraction / function of the heart [2]: significant reduction in the force of myocardial contraction | Protective effect on pathological age-related organ changes (old normotensive rats): no protective effect at all | Life span of spontaneously hypertensive rats [3]: significantly prolongs the life span

CC(C)c1ccc(C(=O)N=C(N)N)cc1S(C)(=O)=O.CS(=O)(=O)O [Cariporide, cariporide]
Number of surviving rats [1, 4]: 20 | Number of surviving rats [1, 5]: 18 | Number of surviving rats [1, 6]: 16 | Number of surviving rats [1, 7]: 12 | Number of surviving rats [1, 8]: 8 | Number of surviving rats [1, 9]: 7 | Number of surviving rats [1, 10]: 7 | Number of surviving rats [1, 11]: 5 | Number of surviving rats [1, 12]: 0 | Number of surviving rats [1, 13]: 0 | Number of surviving rats [1, 14]: 0 | Number of surviving rats [1, 15]: 0 | Holm-adjusted log rank test of survival vs. Placebo [1, 16]: * | Survival rate compared with the placebo treatment ([1]; result in words): statistically significant improvement in the survival rate | Difference in survival rates between cariporide and ramipril ([1]; result in words, chosen significance level): No significant differences | Median survival time [1]: 4.0 months | Weight of the hearts ([2]; 3 months after start of late treatment): significantly smaller weights of the hearts | Myocardial fibrosis (Hyp/Arg ratio of hydroxyproline to arginine) ([2]; 3 months after start of late treatment, HPLC): significantly reduced; also recorded: possible for a preexisting fibrosis to be reduced | Force of myocardial contraction / function of the heart [2]: significantly improved the function of the heart
